Here are results for 62 molecules from patent US10093678B2, “Azaspiro derivatives as TRPM8 antagonists” (RaQualia Pharma Inc., priority 2014, dated 2018).

For this assay, the target named is T1, human TRPM8 (Homo sapiens, UniProt Q7Z2W7).
T1 construct: expressed in transfected cells; host or cells: HEK293
T1 sequence (Q7Z2W7 whole entry): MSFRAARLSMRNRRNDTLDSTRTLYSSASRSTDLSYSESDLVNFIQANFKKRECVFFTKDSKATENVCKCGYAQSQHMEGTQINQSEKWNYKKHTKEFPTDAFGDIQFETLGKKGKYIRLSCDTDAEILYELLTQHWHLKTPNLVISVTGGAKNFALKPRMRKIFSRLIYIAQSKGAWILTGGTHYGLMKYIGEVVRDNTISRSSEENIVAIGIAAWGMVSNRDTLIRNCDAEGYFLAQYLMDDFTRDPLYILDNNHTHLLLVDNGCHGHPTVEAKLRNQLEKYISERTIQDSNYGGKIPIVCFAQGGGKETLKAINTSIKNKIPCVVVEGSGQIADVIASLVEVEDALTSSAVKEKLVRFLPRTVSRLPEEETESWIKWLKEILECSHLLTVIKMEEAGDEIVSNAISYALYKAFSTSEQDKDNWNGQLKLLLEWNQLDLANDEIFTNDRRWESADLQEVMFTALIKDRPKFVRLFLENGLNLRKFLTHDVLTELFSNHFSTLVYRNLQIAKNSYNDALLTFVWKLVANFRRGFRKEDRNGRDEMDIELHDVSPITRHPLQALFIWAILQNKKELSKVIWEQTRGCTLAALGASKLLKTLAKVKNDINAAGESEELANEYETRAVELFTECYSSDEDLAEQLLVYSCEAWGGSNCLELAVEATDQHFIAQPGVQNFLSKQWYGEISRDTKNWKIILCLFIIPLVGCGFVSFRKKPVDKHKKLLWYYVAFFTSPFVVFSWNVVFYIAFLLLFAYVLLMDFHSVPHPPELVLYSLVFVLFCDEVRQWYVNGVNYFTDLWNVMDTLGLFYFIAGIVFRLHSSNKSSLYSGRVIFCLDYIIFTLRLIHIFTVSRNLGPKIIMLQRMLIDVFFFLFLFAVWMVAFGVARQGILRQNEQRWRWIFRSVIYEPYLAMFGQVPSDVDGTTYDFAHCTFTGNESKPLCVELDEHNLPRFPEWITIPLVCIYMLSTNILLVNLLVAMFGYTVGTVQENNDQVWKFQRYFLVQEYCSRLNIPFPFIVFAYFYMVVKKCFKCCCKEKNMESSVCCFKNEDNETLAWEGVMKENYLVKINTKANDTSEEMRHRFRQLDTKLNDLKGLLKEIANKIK
Kind of assay: Menthol-induced Ca2+ influx in HEK293 cells stably expressing human TRPM8. The assay is classed as cell-based. The settings on record: 30 microM menthol-induced Ca2+ influx, read-out: IC50 against TRPM8. The essentials:
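HEK293 cells stably expressing human TRPM8 were loaded with Fluo4-AM for 1 h at room temperature, preincubated 5 min with compound, then challenged with 30 microM menthol. Calcium rise was read by FDSS imaging. IC50 came from 11-point curves using duplicate-well means.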
With `Cn1nccc1-c1ccc(C(=O)CN2C(=O)NC3(CCCCC3)C2=O)cc1` [Example 7-6], the IC50 is under 100 nM.

Turning to `Cc1cncc(-n2c(C)cc(C(=O)CN3C(=O)NC4(CCC(F)(F)CC4)C3=O)c2C)n1` [Example 3-2], the IC50 was under 100 nM.

Consider `Cc1ccnnc1Oc1ccc(C(=O)CN2C(=O)NC3(CCC(F)(F)CC3)C2=O)cc1` [Example 21-11, 8,8-difluoro-3-(2-(4-((4-methylpyridazin-3-yl)oxy)phenyl)-2-oxoethyl)-1,3-diazaspiro[4.5]decane-2,4-dione], for which the IC50 is under 500 nM.

As to `Cc1cc(C(=O)CN2C(=O)NC3(CCC(F)(F)CC3)C2=O)sc1-c1cccnc1C` [Example 14-9], the IC50 is under 100 nM.

Take `NC(=O)c1cccc(-c2ccc(C(=O)CN3C(=O)NC4(CCC(F)(F)CC4)C3=O)cc2Cl)c1` [Example 13-28]: the IC50 was under 100 nM.

As for `CC(=O)NCc1ncccc1-c1ccc(C(=O)CN2C(=O)NC3(CCC(F)(F)CC3)C2=O)cc1` [Example 6-57, N-((3-(4-(2-(8,8-difluoro-2,4-dioxo-1,3-diazaspiro[4.5]decan-3-yl)acetyl)phenyl)pyridin-2-yl)methyl)acetamide], the IC50 is under 100 nM.

Consider `Cc1nc(C(=O)CN2C(=O)NC3(CCC(F)(F)CC3)C2=O)n(C)c1-c1cccc(F)c1` [Example 17-6], for which the IC50 was under 10 nM.

`O=C(CN1C(=O)NC2(CCC(F)(F)CC2)C1=O)c1ccc(-c2ccccc2O)cc1` [Example 6-19]: the IC50 was under 100 nM.

Regarding `Cc1cccc(-n2c(C)cc(C(=O)CN3C(=O)NC4(CCCCC4)C3=O)c2C)c1` [Example 3-6], the IC50 was under 100 nM.

With `Cc1cc(C(=O)CN2C(=O)NC3(CCC(F)(F)CC3)C2=O)sc1-c1cccc(C#N)c1` [Example 14-10], the IC50 is under 100 nM.

As to `O=C(CN1C(=O)NC2(CCC(F)(F)CC2)C1=O)c1ccc(-c2cccnc2OCCO)cc1` [Example 6-17], the IC50 is under 100 nM.

Take `Cc1ccccc1-n1ncc(C(=O)CN2C(=O)NC3(CCC(F)(F)CC3)C2=O)c1C` [Example 4-12]: the IC50 is under 500 nM.

As for `O=C(CN1C(=O)NC2(CCC(F)(F)CC2)C1=O)c1ccc(-c2ncnc3[nH]ccc23)cc1` [Example 6-8], the IC50 is under 10 nM.

`O=C(CN1C(=O)NC2(CCC(F)(F)CC2)C1=O)c1ccc(-c2ccnc3ccccc23)cc1` [Example 13-43]: the IC50 is under 100 nM.

With `COc1nc2cccnc2n1-c1ccc(C(=O)CN2C(=O)NC3(CCC(F)(F)CC3)C2=O)cc1` [Example 26-1, 8,8-difluoro-3-(2-(4-(2-methoxy-3H-imidazo[4,5-b]pyridin-3-yl)phenyl)-2-oxoethyl)-1,3-diazaspiro[4.5]decane-2,4-dione], the IC50 was under 10 nM.

In the case of `Cc1cc(C(=O)CN2C(=O)NC3(CCC(F)(F)CC3)C2=O)c(C)n1-c1ccccn1` [Example 3-12], the IC50 is under 100 nM.

Turning to `Cn1c(-c2cccc(F)c2)cnc1C(=O)CN1C(=O)NC2(CCC(F)(F)CC2)C1=O` [Example 17-1], the IC50 is under 100 nM.

Take `Cn1c(-c2ccccc2)cnc1C(=O)CN1C(=O)NC2(CCC(F)(F)CC2)C1=O` [Example 4-4]: the IC50 was under 100 nM.

With `Cc1cc(-n2c(C)cc(C(=O)CN3C(=O)OC4(CCC(F)(F)CC4)C3=O)c2C)no1` [Example 1-2], the IC50 is under 100 nM.

`Cc1c(C(=O)CN2C(=O)NC3(CCC(F)(F)CC3)C2=O)cn(C)c1-c1cccc(F)c1` [Example 16-24]: the IC50 was under 100 nM.

Turning to `CCN(c1ccccc1)c1ccc(C(=O)CN2C(=O)NC3(CCCCC3)C2=O)cn1` [Example 19-3], the IC50 was under 100 nM.

For `Cc1c(C(=O)CN2C(=O)NC3(CCC(F)(F)CC3)C2=O)cn(C)c1-c1ccccc1CO` [Example 16-34], the IC50 was under 500 nM.

As for `Cc1cc(C(=O)CN2C(=O)NC3(CCC(F)(F)CC3)C2=O)ccc1-c1cccc2c1CNC2=O` [Example 13-10], the IC50 is under 100 nM.

As for `O=C(CN1C(=O)NC2(CCC(F)(F)CC2)C1=O)c1ccc(-c2nccc3occc23)cc1` [Example 6-31], the IC50 is under 100 nM.

With `O=C(CN1C(=O)NC2(CCC(F)(F)CC2)C1=O)c1ccc(-c2cccnc2)c(Cl)c1` [Example 13-24], the IC50 is under 100 nM.

In the case of `O=C(CN1CC2(CCC(F)(F)CC2)OC1=O)c1ccc(-c2cccc3cccnc23)cc1` [Example 13-57], the IC50 was under 500 nM.

`O=C(CN1C(=O)NC2(CCCCC2)C1=O)c1ccc(Oc2ccccc2Cl)nc1` [Example 20-5]: the IC50 is under 500 nM.

As to `O=C(CN1C(=O)NC2(CCC(F)(F)CC2)C1=O)c1ccc(-c2nccc3ccncc23)cc1` [Example 6-44], the IC50 was under 100 nM.

On to `Cc1ccccc1-c1ccc(C(=O)CN2C(=O)NC3(CCCCC3)C2=O)cc1` [Example 13-4], for which the IC50 is under 100 nM.

For `Cc1sc(C(=O)CN2C(=O)NC3(CCC(F)(F)CC3)C2=O)c(C)c1-c1ccccc1C#N` [Example 15-1], the IC50 was under 100 nM.

For the molecule `Cc1cc(C(=O)CN2C(=O)NC3(CCC(F)(F)CC3)C2=O)sc1-c1cccc(CO)c1` [Example 14-21], the concentration for half-maximal inhibition (IC50) was under 500 nM.

Take `Cc1cc(-n2c(C)cc(C(=O)CN3C(=O)NC4(CCC(F)(F)CC4)C3=O)c2C)no1` [Example 1-1, 3-(2-(2,5-dimethyl-1-(5-methylisoxazol-3-yl)-1H-pyrrol-3-yl)-2-oxoethyl)-8,8-difluoro-1,3-diazaspiro[4.5]decane-2,4-dione]: the IC50 was under 100 nM.

For `Cc1ccc2[nH]c(=O)n(-c3ccc(C(=O)CN4C(=O)NC5(CCC(F)(F)CC5)C4=O)cc3)c2n1` [Example 23-2, 8,8-difluoro-3-(2-(4-(5-methyl-2-oxo-1H-imidazo[4,5-b]pyridin-3(2H)-yl)phenyl)-2-oxoethyl)-1,3-diazaspiro[4.5]decane-2,4-dione], the IC50 was under 100 nM.

As to `Cc1cc(-n2c(C)cc(C(=O)CN3C(=O)OC4(CCCCC4)C3=O)c2C)no1` [Example 1-3], the IC50 is under 100 nM.

On to `Cc1cc(C(=O)CN2C(=O)NC3(CCC(F)(F)CC3)C2=O)c(C)n1-c1cncc2ccccc12` [Example 3-19], for which the IC50 is under 100 nM.

As to `COc1nc2ccc(C)nc2n1-c1ccc(C(=O)CN2C(=O)NC3(CCC(F)(F)CC3)C2=O)cc1` [Example 26-3], the IC50 is under 10 nM.

On to `Cc1cc(C(=O)CN2C(=O)NC3(CCC(F)(F)CC3)C2=O)sc1-c1ccccc1CO` [Example 14-4], for which the IC50 is under 100 nM.

For `Cc1cccc(N(C)c2ccc(C(=O)CN3C(=O)NC4(CCCCC4)C3=O)cn2)c1` [Example 19-1, 3-(2-(6-(methyl(m-tolyl)amino)pyridin-3-yl)-2-oxoethyl)-1,3-diazaspiro[4.5]decane-2,4-dione], the IC50 is under 100 nM.

`Cc1ncccc1-c1c(C)nc(C(=O)CN2C(=O)NC3(CCC(F)(F)CC3)C2=O)n1C` [Example 17-13]: the IC50 was under 500 nM.

For `Cc1ccncc1-c1sc(C(=O)CN2C(=O)NC3(CCCCC3)C2=O)cc1C` [Example 14-3], the IC50 was under 100 nM.

For `Cc1cc(-n2c(C)cc(C(=O)CN3C(=O)NC4(CCC(F)(F)CC4)C3=O)c2C)on1` [Example 3-1], the IC50 is under 100 nM.

For the molecule `O=C(CN1C(=O)NC2(CCC(F)(F)CC2)C1=O)c1ccc(-c2cccc3cnccc23)cc1` [Example 13-41], the half-inhibitory concentration (IC50) was under 100 nM.

Take `Cc1cc(C(=O)CN2C(=O)NC3(CCC(F)(F)CC3)C2=O)ccc1-c1ccccc1C#N` [Example 13-9]: the IC50 is under 100 nM.

As for `O=C(CN1C(=O)NC2(CCCCC2)C1=O)c1ccc(-c2cccnc2)cc1F` [Example 13-18], the IC50 was under 100 nM.

Regarding `COc1ccccc1-c1ccc(C(=O)CN2C(=O)NC3(CCCCC3)C2=O)cn1` [Example 9-3], the 50% inhibitory concentration (IC50) is under 10 nM.

Take `CCOc1nc2ccc(C)nc2n1-c1ccc(C(=O)CN2C(=O)NC3(CCC(F)(F)CC3)C2=O)cc1` [Example 26-4]: the IC50 is under 100 nM.

Turning to `O=C(CN1C(=O)NC2(CCC(F)(F)CC2)C1=O)c1ccc(-c2cccc3cnccc23)c(F)c1` [Example 13-22], the IC50 is under 100 nM.

Consider `Cc1nc2cccnc2n1-c1ccc(C(=O)CN2CC3(CCC(F)(F)CC3)OC2=O)cc1` [Example 22-2], for which the IC50 was under 500 nM.

`O=C(CN1C(=O)NC2(CCC(F)(F)CC2)C1=O)c1ccc(-c2cncc3[nH]ccc23)nc1` [Example 9-23]: the IC50 is under 100 nM.

Regarding `O=C(CN1C(=O)NC2(CCC(F)(F)CC2)C1=O)c1ccc(-c2cccnc2CO)nc1` [Example 9-25], the IC50 was under 100 nM.

Regarding `Cc1ccsc1-c1ccc(C(=O)CN2C(=O)NC3(CCCCC3)C2=O)cc1` [Example 7-3], the IC50 is under 100 nM.

`O=C(CN1C(=O)NC2(CCC(F)(F)CC2)C1=O)c1ccc(-c2cccc3ccncc23)cc1` [Example 13-36]: the IC50 was under 10 nM.

With `Cc1ncccc1-c1c(C)c(C(=O)CN2C(=O)NC3(CCC(F)(F)CC3)C2=O)cn1C` [Example 16-28], the IC50 was under 500 nM.

As to `N#Cc1ccnnc1-c1ccc(C(=O)CN2C(=O)NC3(CCC(F)(F)CC3)C2=O)cc1` [Example 6-43], the 50% inhibitory concentration (IC50) was under 100 nM.

On to `Cc1cccc(-n2c(C)cc(C(=O)CN3C(=O)NC4(CCCCCC4)C3=O)c2C)n1` [Example 3-14], for which the IC50 is under 100 nM.

As for `O=C(CN1C(=O)NC2(CCC(F)(F)CC2)C1=O)c1ccc(-c2cnc3ccccn23)cc1` [Example 6-81], the IC50 was under 100 nM.

With `Nc1ccnnc1-c1ccc(C(=O)CN2C(=O)NC3(CCC(F)(F)CC3)C2=O)cc1F` [Example 8-6], the IC50 was under 500 nM.

`O=C(CN1C(=O)NC2(CCC(F)(F)CC2)C1=O)c1ccc(-c2nccnc2CO)cc1` [Example 6-6]: the IC50 was under 10 nM.

Turning to `Cc1ccc(C#N)c(-c2ccc(C(=O)CN3C(=O)NC4(CCC(F)(F)CC4)C3=O)cc2)n1` [Example 6-92], the IC50 is under 100 nM.

As for `Cc1cc(C(=O)CN2C(=O)NC3(CCCCC3)C2=O)cnc1-c1ccccc1` [Example 11-2], the IC50 is under 100 nM.

As to `N#Cc1cccc(-c2ccc(C(=O)CN3C(=O)OC4(CCC(F)(F)CC4)C3=O)cc2)n1` [Example 7-25], the IC50 was under 100 nM.

`O=C(CN1C(=O)NC2(CCC(F)(F)CC2)C1=O)c1ccc(Oc2ccccc2)nc1` [Example 5-23]: the IC50 was under 500 nM.
